System: horse plasma
Experiment: Thrombelastography of horse plasma, coagulation and fibrinolysis study (with tPA)
Format: biochemical
Settings: for % TTG Loss / MRL / MRTG / TMRL / TMRTG / TTG / CGT / CLS / CLT: CORM-2 100 μM
Protocol: Blood was collected directly into plastic tubes containing 0.105 M sodium citrate (9:1, v/v) from the jugular vein of ten clinically normal grade and American Quarter Horse mares between 400 and 600 kg. Three additional horses to be subsequently described with acute gastrointestinal disease had blood samples similarly collected. The mares were group-housed in corrals. Plasma was obtained by centrifugation of citrated whole blood at 3000×g for 15 minutes and immediately frozen at −80° C. Plasma was subsequently shipped on dry ice and stored at −80° C. until thrombelastographic analysis.
In the second series of experiments assessing both coagulation and fibrinolysis, sample composition consisted of 316 μl of plasma; 10 μl of tissue factor reagent (0.1% final concentration), 10 μl of tissue type plasminogen activator (tPA, 580 Genentech, Inc., San Francisco, Calif., USA; 300 IU/ml final concentration); 3.6 μl of dH2O, or 3.6 μl dH2O containing PHA (10 mM final concentration), or 3.6 μl of CORM-2 (100 μM final concentration) and 20 μl of 200 mM CaCl2. The effects of converting heme groups to either a carboxyheme or metheme in horse plasma during clot growth and fibrinolysis were assessed as subsequently described.
Plasma sample mixtures were placed in a disposable cup in a computer-controlled Thrombelastograph® hemostasis system (Model 5000, Haemoscope Corp., Niles, Ill., USA), with addition of CaCl2 as the last step to initiate clotting. Data were collected at 37° C. for 15 min in the first series of experiments involving coagulation alone, whereas in the experiments involving fibrinolysis data were collected until clot lysis time was observed. Elastic modulus-based parameters previously described were determined (Nielsen et al., 2009, Blood Coagul Fibrinolysis, 20: 377-380; Nielsen et al., 2009, Blood Coagul Fibrinolysis, 20: 448-455). The nomenclature used to describe these phenomena is as follows:
Time to maximum rate of thrombus generation (TMRTG): This is the time interval (min) observed prior to maximum speed of clot growth.
Maximum rate of thrombus generation (MRTG): This is the maximum velocity of clot growth observed (dynes/cm^2/sec).
Total Thrombus Generation (TTG): This is the total area under the velocity curve during clot growth (dynes/cm^2), representing the amount of clot strength generated during clot growth.
Time to maximum rate of lysis (TMRL): This is the time interval (min) measured from the time of maximum strength to the time when the velocity of clot disintegration is maximal.
Maximum Rate of Lysis (MRL): This is the maximum velocity of clot disintegration observed (-dynes/cm^2/sec).
Clot growth time (CGT): This is the time from clot amplitude of 2 mm [102 dynes/cm^2] until maximum strength is achieved, in min.
Clot lifespan (CLS): This is the sum of CGT and CLT.
Thrombelastographic data are presented as mean±SD or as individual animal parameter values as appropriate. The effects of addition of CORM-2 and PHA on coagulation and fibrinolytic kinetic parameters were analyzed with one way repeated measures analysis of variance, utilizing Holm-Sidak post hoc test (SigmaStat 3.1, Systat Software, Inc., San Jose, Calif., USA) as appropriate. A P value of <0.05 was considered significant.

[1] = horse with lethal enteritis, tPA
[2] = horse with mild disease, tPA, PHA 10 mM
[3] = horse with moderate disease, tPA, PHA 10 mM
[4] = horse with moderate enteritis, tPA
[5] = normal horses, tPA 300 IU/ml, PHA 10 mM

[C-]#[O+].[C-]#[O+].[C-]#[O+].[C-]#[O+].[C-]#[O+].[C-]#[O+].[Cl][Ru][Cl].[Cl][Ru][Cl] [CORM-2, tricarbonyldichlororuthenium (II) dimer]
% TTG Loss (horse with lethal disease, tPA): 67.4%
MRL (horse with lethal disease, tPA): 0.1 -dynes/cm^2/sec
MRTG (horse with lethal disease, tPA): 2.8 dynes/cm^2/sec
TMRL (horse with lethal disease, tPA): 65.2 min
TMRTG (horse with lethal disease, tPA): 4.1 min
TTG (horse with lethal disease, tPA): 92 dynes/cm^2
effect on MRL vs control sample [1]: did not affect
increase in MRTG vs control sample [1]: 12%
increase in TMRL vs control sample [1]: 8 fold
increase in TTG vs control sample [1]: 73%
% TTG Loss [2]: 50.7%
MRL [2]: 0.2 -dynes/cm^2/sec
MRTG [2]: 6.8 dynes/cm^2/sec
TMRL [2]: 122.8 min
TMRTG [2]: 3.2 min
TTG [2]: 274 dynes/cm^2
decrease in MRL vs control sample (horse with mild enteritis, tPA): 88%
decrease in MRTG vs control sample (horse with mild enteritis, tPA): 3%
increase in TMRL vs control sample (horse with mild enteritis, tPA): 46 fold
increase in TTG vs control sample (horse with mild enteritis, tPA): 77%
% TTG Loss [3]: 25.8%
MRL [3]: 0.4 -dynes/cm^2/sec
MRTG [3]: 7.2 dynes/cm^2/sec
TMRL [3]: 62.9 min
TMRTG [3]: 2.5 min
TTG [3]: 198 dynes/cm^2
decrease in MRL vs control sample [4]: 83%
increase in MRTG vs control sample [4]: 38%
increase in TMRL vs control sample [4]: 55 fold
increase in TTG vs control sample [4]: 160%
decrease in CGT vs control (normal horses, tPA): 26%
decrease in CLS (clot lifespan) vs control (normal horses, tPA): 77%
decrease in CLT vs control (normal horses, tPA): 83%
decrease in MRL vs control (normal horses, tPA): 27%
increase (prolongation) in TMRL vs control (normal horses, tPA): 113%
increase in CGT vs control (normal horses, tPA): 106%
increase in CLS vs control (normal horses, tPA): 154%
increase in CLT vs control (normal horses, tPA): 160%
increase in TTG vs control (normal horses, tPA): 35%
CGT [5]: 6.4 ± 1.7 min
CLS [5]: 77.1 ± 23.8
CLT [5]: 70.6 ± 23.0 min
MRL [5]: 1.1 ± 0.5 -dynes/cm^2/sec
MRTG [5]: 13.2 ± 3.4 dynes/cm^2/sec
TMRL [5]: 26.2 ± 17.3 min
TMRTG [5]: 2.7 ± 0.4 min
TTG [5]: 312 ± 70 dynes/cm^2

ONc1ccccc1 [PHA, phenylhydroxylamine]
% TTG Loss [2]: 100%
MRL [2]: 2.6 -dynes/cm^2/sec
MRTG [2]: 4.0 dynes/cm^2/sec
TMRL [2]: 2.4 min
TMRTG [2]: 3.4 min
TTG [2]: 100 dynes/cm^2
decrease in MRTG vs control sample (horse with mild enteritis, tPA): 42%
decrease in TTG vs control sample (horse with mild enteritis, tPA): 28%
difference in TMRL between control and exposed sample (horse with mild enteritis, tPA): 8%
increase in MRL vs control sample (horse with mild enteritis, tPA): 53%
% TTG Loss [3]: 100%
MRL [3]: 2.3 -dynes/cm^2/sec
MRTG [3]: 4.5 dynes/cm^2/sec
TMRL [3]: 2.8 min
TMRTG [3]: 2.8 min
TTG [3]: 94 dynes/cm^2
change in MRL vs control sample [4]: essentially no change
decrease in MRTG vs control sample [4]: 13%
increase in TMRL vs control sample [4]: 64%
increase in TTG vs control sample [4]: 23%
decrease in CLS (clot lifespan) vs control (normal horses, tPA): 77%
decrease in MRTG vs control (normal horses, tPA): 55%
decrease in TMRL vs control (normal horses, tPA): 84%
increase in MRL vs control (normal horses, tPA): 133%
CGT [5]: 2.3 ± 0.5 min
CLS [5]: 6.9 ± 1.4
CLT [5]: 4.6 ± 1.3 min
MRL [5]: 3.5 ± 0.8 -dynes/cm^2/sec
MRTG [5]: 5.6 ± 1.3 dynes/cm^2/sec
TMRL [5]: 2.0 ± 0.2 min
TMRTG [5]: 3.2 ± 0.6 min
TTG [5]: 118 ± 26 dynes/cm^2
